Measurements from ChEMBL document CHEMBL1136143, “Synthesis and activity of novel benzoxazole derivatives of mannopeptimycin glycopeptide antibiotics” (2003).
In brackets after ≈: the same amount, converted by molar mass.

How the values were obtained:
Format in all cases: functional
Staphylococcus aureus [1] = assay: In vitro minimum inhibitory concentration against Methicillin-resistant Staphylococcus aureus (GC 4542)
Staphylococcus aureus [2] = assay: In vitro minimum inhibitory concentration against Methicillin-resistant Staphylococcus aureus(GC 4544)
Enterococcus faecalis [3] = assay: In vitro minimum inhibitory concentration against vancomycin-susceptible Enterococcus faecalis (GC 2691)
Enterococcus faecalis [4] = assay: In vitro minimum inhibitory concentration against vancomycin-resistant Enterococcus faecalis (GC 3059)
Enterococcus faecalis [5] = assay: In vitro minimum inhibitory concentration against vancomycin-susceptible Enterococcus faecalis (GC 4553)
[6] = test system: Staphylococcus haemolyticus; assay: In vitro minimum inhibitory concentration against methicillin-resistant Coagulase-negative Staphylococci (MRCNS) (GC 4547))
[7] = test system: Staphylococcus haemolyticus; assay: In vitro minimum inhibitory concentration against methicillin-resistant Coagulase-negative Staphylococci (MRCNS) (GC 4546))
Staphylococcus aureus [8] = assay: In vitro minimum inhibitory concentration against Methicillin-resistant Staphylococcus aureus (GC 2216)
[9] = test system: Staphylococcus haemolyticus; assay: In vitro minimum inhibitory concentration against methicillin-susceptible Coagulase-negative Staphylococci (MSCNS) (GC 4549))
Streptococcus pneumoniae [10] = assay: In vitro minimum inhibitory concentration against Penicillin resistant Streptococcus pneumoniae (GC 1894)
Enterococcus sp. = assay: In vitro minimum inhibitory concentration against Enterococcus species (11 strains, including VRE)
Streptococcus = assay: In vitro minimum inhibitory concentration against Streptococcus Species (5 strains, including PRSP)
Enterococcus faecalis [11] = assay: In vitro minimum inhibitory concentration against vancomycin-susceptible Enterococcus faecalis (GC 4552)
Staphylococcus aureus [12] = assay: In vitro minimum inhibitory concentration against Methicillin-resistant Staphylococcus aureus (GC 4543)
[13] = test system: Staphylococcus haemolyticus; assay: In vitro minimum inhibitory concentration against methicillin-resistant Coagulase-negative Staphylococci (MRCNS) (GC 4548))
Enterococcus faecium [14] = assay: In vitro minimum inhibitory concentration against vancomycin-resistant Enterococcus faecium (GC 4558)
Enterococcus faecium [15] = assay: In vitro minimum inhibitory concentration against vancomycin-resistant Enterococcus faecium (GC 2243)
Enterococcus faecium [16] = assay: In vitro minimum inhibitory concentration against vancomycin-susceptible Enterococcus faecium (GC 4556)
Enterococcus faecium [17] = assay: In vitro minimum inhibitory concentration against vancomycin-susceptible Enterococcus faecium (GC 4557)
Streptococcus pneumoniae [18] = assay: In vitro minimum inhibitory concentration against Penicillin susceptible Streptococcus pneumoniae (GC 4565)
Enterococcus faecalis [19] = assay: In vitro minimum inhibitory concentration against vancomycin-susceptible Enterococcus faecalis (GC 4554)
Staphylococcus aureus [20] = assay: In vitro minimum inhibitory concentration against Methicillin-resistant Staphylococcus aureus(GC 4545)
Bacillus cereus = assay: In vitro minimum inhibitory concentration against Bacillus cereus (GC 4561) assay organism
Streptococcus pneumoniae [21] = assay: In vitro minimum inhibitory concentration against Penicillin susceptible Streptococcus pneumoniae (GC 6242)
Enterococcus faecalis [22] = assay: In vitro minimum inhibitory concentration against vancomycin-resistant Enterococcus faecalis (GC 2242)
[23] = test system: Staphylococcus haemolyticus; assay: In vitro minimum inhibitory concentration against methicillin-susceptible Coagulase-negative Staphylococci (MSCNS) (GC 4551)
Streptococcus pyogenes = assay: In vitro minimum inhibitory concentration against Streptococcus pyogenes (GC 4563)
Streptococcus agalactiae = assay: In vitro minimum inhibitory concentration against Streptococcus agalactiae (GC4564)
Staphylococcus aureus [24] = assay: In vitro minimum inhibitory concentration against Methicillin-resistant Staphylococcus aureus (GC 1131)
Micrococcus luteus = assay: In vitro minimum inhibitory concentration against Micrococcus lutea (GC 4562)
Staphylococcus aureus [25] = assay: In vitro minimum inhibitory concentration against Staphylococcus aureus (10strains, including MRSA)
Enterococcus faecalis [26] = assay: In vitro minimum inhibitory concentration against vancomycin-resistant Enterococcus faecalis (GC 6189)
Staphylococcus aureus [27] = assay: In vitro minimum inhibitory concentration against glycopeptide tntermediate Staphylococcus aureus (GC 3051)
Staphylococcus aureus [28] = assay: In vitro minimum inhibitory concentration against Methicillin-resistant Staphylococcus aureus(GC 4541)
Enterococcus faecalis [29] = assay: In vitro minimum inhibitory concentration against vancomycin-susceptible Enterococcus faecalis (GC 4555)
Staphylococcus aureus [30] = assay: In vitro minimum inhibitory concentration against glycopeptide tntermediate Staphylococcus aureus (GC 3066)
[31] = test system: Staphylococcus haemolyticus; assay: In vitro minimum inhibitory concentration against methicillin-susceptible Coagulase-negative Staphylococci (MSCNS) (GC 6257)

Cc1ccc(Oc2ccc(-c3nc4ccc(C[C@H]5NC(=O)[C@H]([C@@H](C)c6ccccc6)NC(=O)CNC(=O)[C@H](CO)NC(=O)[C@@H]([C@@H](O)[C@@H]6CN=C(N)N6[C@H]6O[C@H](CO)[C@@H](O)[C@H](O)[C@@H]6O)NC(=O)[C@H]([C@H](O)[C@@H]6CN=C(N)N6)NC5=O)cc4o3)cc2)cc1
MIC (Staphylococcus aureus [1]): 8 µg/mL (≈ 6.79 µM)
MIC (Staphylococcus aureus [2]): 8 µg/mL (≈ 6.79 µM)
MIC (Enterococcus faecalis [3]): 8 µg/mL (≈ 6.79 µM)
MIC (Enterococcus faecalis [4]): 8 µg/mL (≈ 6.79 µM)
MIC (Enterococcus faecalis [5]): 4 µg/mL (≈ 3.39 µM)
MIC [6]: 8 µg/mL (≈ 6.79 µM)
MIC [7]: 4 µg/mL (≈ 3.39 µM)
MIC (Staphylococcus aureus [8]): 8 µg/mL (≈ 6.79 µM)
MIC [9]: 4 µg/mL (≈ 3.39 µM)
MIC (Streptococcus pneumoniae [10]): 4 µg/mL (≈ 3.39 µM)
MIC (Enterococcus sp.): 4 µg/mL (≈ 3.39 µM)
MIC (Streptococcus): 1 µg/mL (≈ 0.849 µM)
MIC (Enterococcus faecalis [11]): 8 µg/mL (≈ 6.79 µM)
MIC (Staphylococcus aureus [12]): 4 µg/mL (≈ 3.39 µM)
MIC [13]: 4 µg/mL (≈ 3.39 µM)
MIC (Enterococcus faecium [14]): 4 µg/mL (≈ 3.39 µM)
MIC (Enterococcus faecium [15]): 8 µg/mL (≈ 6.79 µM)
MIC (Enterococcus faecium [16]): 8 µg/mL (≈ 6.79 µM)
MIC (Enterococcus faecium [17]): 4 µg/mL (≈ 3.39 µM)
MIC (Streptococcus pneumoniae [18]): 4 µg/mL (≈ 3.39 µM)
MIC (Enterococcus faecalis [19]): 8 µg/mL (≈ 6.79 µM)
MIC (Staphylococcus aureus [20]): 4 µg/mL (≈ 3.39 µM)
MIC (Bacillus cereus): 8 µg/mL (≈ 6.79 µM)
MIC (Streptococcus pneumoniae [21]): 4 µg/mL (≈ 3.39 µM)
MIC (Enterococcus faecalis [22]): 4 µg/mL (≈ 3.39 µM)
MIC [23]: 4 µg/mL (≈ 3.39 µM)
MIC (Streptococcus pyogenes): 1 µg/mL (≈ 0.849 µM)
MIC (Streptococcus agalactiae): 4 µg/mL (≈ 3.39 µM)
MIC (Staphylococcus aureus [24]): 8 µg/mL (≈ 6.79 µM)
MIC (Micrococcus luteus): 1 µg/mL (≈ 0.849 µM)
MIC (Staphylococcus aureus [25]): 4 µg/mL (≈ 3.39 µM)
MIC (Enterococcus faecalis [26]): 8 µg/mL (≈ 6.79 µM)
MIC (Staphylococcus aureus [27]): 4 µg/mL (≈ 3.39 µM)
MIC (Staphylococcus aureus [28]): 8 µg/mL (≈ 6.79 µM)
MIC (Enterococcus faecalis [29]): 8 µg/mL (≈ 6.79 µM)
MIC (Staphylococcus aureus [30]): 4 µg/mL (≈ 3.39 µM)
MIC [31]: 2 µg/mL (≈ 1.7 µM)

C[C@@H](c1ccccc1)[C@@H]1NC(=O)CNC(=O)[C@H](CO)NC(=O)[C@@H]([C@@H](O)[C@@H]2CN=C(N)N2[C@H]2O[C@H](CO)[C@@H](O)[C@H](O)[C@@H]2O)NC(=O)[C@H]([C@H](O)[C@@H]2CN=C(N)N2)NC(=O)[C@@H](Cc2ccc3nc(SCC(=O)c4ccc(Cl)cc4)oc3c2)NC1=O
MIC (Staphylococcus aureus [1]): 4 µg/mL (≈ 3.39 µM)
MIC (Staphylococcus aureus [2]): 4 µg/mL (≈ 3.39 µM)
MIC (Enterococcus faecalis [3]): 16 µg/mL (≈ 13.6 µM)
MIC (Enterococcus faecalis [4]): 32 µg/mL (≈ 27.1 µM)
MIC (Enterococcus faecalis [5]): 4 µg/mL (≈ 3.39 µM)
MIC [6]: 4 µg/mL (≈ 3.39 µM)
MIC [7]: 1 µg/mL (≈ 0.847 µM)
MIC (Staphylococcus aureus [8]): 8 µg/mL (≈ 6.78 µM)
MIC [9]: 1 µg/mL (≈ 0.847 µM)
MIC (Streptococcus pneumoniae [10]): 8 µg/mL (≈ 6.78 µM)
MIC (Enterococcus sp.): 2 µg/mL (≈ 1.69 µM)
MIC (Streptococcus): 2 µg/mL (≈ 1.69 µM)
MIC (Enterococcus faecalis [11]): 2 µg/mL (≈ 1.69 µM)
MIC (Staphylococcus aureus [12]): 2 µg/mL (≈ 1.69 µM)
MIC [13]: 2 µg/mL (≈ 1.69 µM)
MIC (Enterococcus faecium [14]): 4 µg/mL (≈ 3.39 µM)
MIC (Enterococcus faecium [15]): 8 µg/mL (≈ 6.78 µM)
MIC (Enterococcus faecium [16]): 8 µg/mL (≈ 6.78 µM)
MIC (Enterococcus faecium [17]): 2 µg/mL (≈ 1.69 µM)
MIC (Streptococcus pneumoniae [18]): 8 µg/mL (≈ 6.78 µM)
MIC (Enterococcus faecalis [19]): 16 µg/mL (≈ 13.6 µM)
MIC (Staphylococcus aureus [20]): 2 µg/mL (≈ 1.69 µM)
MIC (Bacillus cereus): 1 µg/mL (≈ 0.847 µM)
MIC (Streptococcus pneumoniae [21]): 8 µg/mL (≈ 6.78 µM)
MIC (Enterococcus faecalis [22]): 16 µg/mL (≈ 13.6 µM)
MIC [23]: 4 µg/mL (≈ 3.39 µM)
MIC (Streptococcus pyogenes): 2 µg/mL (≈ 1.69 µM)
MIC (Streptococcus agalactiae): 4 µg/mL (≈ 3.39 µM)
MIC (Staphylococcus aureus [24]): 4 µg/mL (≈ 3.39 µM)
MIC (Micrococcus luteus): 16 µg/mL (≈ 13.6 µM)
MIC (Staphylococcus aureus [25]): 2 µg/mL (≈ 1.69 µM)
MIC (Enterococcus faecalis [26]): 16 µg/mL (≈ 13.6 µM)
MIC (Staphylococcus aureus [27]): 4 µg/mL (≈ 3.39 µM)
MIC (Staphylococcus aureus [28]): 4 µg/mL (≈ 3.39 µM)
MIC (Enterococcus faecalis [29]): 16 µg/mL (≈ 13.6 µM)
MIC (Staphylococcus aureus [30]): 4 µg/mL (≈ 3.39 µM)
MIC [31]: 1 µg/mL (≈ 0.847 µM)

C[C@@H](c1ccccc1)[C@@H]1NC(=O)CNC(=O)[C@H](CO)NC(=O)[C@@H]([C@@H](O)[C@@H]2CN=C(N)N2[C@H]2O[C@H](CO)[C@@H](O)[C@H](O)[C@@H]2O)NC(=O)[C@H]([C@H](O)[C@@H]2CN=C(N)N2)NC(=O)[C@@H](Cc2ccc3nc(C=C(c4ccccc4)c4ccccc4)oc3c2)NC1=O
MIC (Enterococcus sp.): 8 µg/mL (≈ 6.81 µM)
MIC (Streptococcus): 4 µg/mL (≈ 3.41 µM)
MIC (Staphylococcus aureus [25]): 8 µg/mL (≈ 6.81 µM)

C[C@@H](c1ccccc1)[C@@H]1NC(=O)CNC(=O)[C@H](CO)NC(=O)[C@@H]([C@@H](O)[C@@H]2CN=C(N)N2[C@H]2O[C@H](CO)[C@@H](O)[C@H](O)[C@@H]2O)NC(=O)[C@H]([C@H](O)[C@@H]2CN=C(N)N2)NC(=O)[C@@H](Cc2ccc3nc(-c4ccc5c(c4)-c4ccccc4C5)oc3c2)NC1=O
MIC (Enterococcus sp.): 4 µg/mL (≈ 3.45 µM)
MIC (Streptococcus): 4 µg/mL (≈ 3.45 µM)
MIC (Staphylococcus aureus [25]): 8 µg/mL (≈ 6.9 µM)
